Test results: patent US11147778B2, “Siderophore-polymer conjugates for increasing bacterial sensitivity to antibiotics” (Wisconsin Alumni Research Foundation, priority 2016, dated 2021)
Where two headings read alike, the source gives them in different places.

How the values were obtained:
E. coli ATCC 25922 = test: Broth microdilution MIC / FICI; assay type: cell-based; conditions: Escherichia coli, ATCC25922
Method: (§1) Antimicrobial efficacy was assessed by the broth microdilution assay in accordance with NCCLS guidelines (Coyle, Marie B. Manual of antimicrobial susceptibility testing. American Society for Microbiology, 2005). Organisms were grown overnight on non-selective MHA medium in order to obtain single colonies. Three to five morphologically distinct colonies were touched with a sterile pipet tip and transferred to a culture tube containing MHB (4 mL), and the broth culture was incubated at 37° C. until its turbidity matched a 0.5 McFarland Standard. The inoculum was then diluted 1:20 in sterile water, followed by a 1:10 dilution when inoculating wells of a 96-well plate. […] For combinations, the fractional inhibitory concentration index (FICI) was calculated using the following equation: [formula]

P. aeruginosa ATCC 27853 [1] = test: Broth microdilution MIC / FICI; assay type: cell-based; conditions: Pseudomonas aeruginosa, ATCC27853
Method: as §1

P. aeruginosa PAO1 [2] = test: Broth microdilution MIC / FICI; assay type: cell-based; conditions: Pseudomonas aeruginosa
Method: as §1

P. aeruginosa MDR 24530 = test: Broth microdilution MIC / FICI; assay type: cell-based; conditions: Pseudomonas aeruginosa, MDR24530
Method: as §1, with “[formula]” left out

P. aeruginosa MDR 2638 = test: Broth microdilution MIC / FICI; assay type: cell-based; conditions: Pseudomonas aeruginosa, MDR2638
Method: as §1, with “[formula]” left out

P. aeruginosa MDR 3072 = test: Broth microdilution MIC / FICI; assay type: cell-based; conditions: Pseudomonas aeruginosa, MDR3072
Method: as §1, with “[formula]” left out

[3] = system: P. aeruginosa reference strains (ATCC 27853 and PAO1); test: Dose response of growth (OD600) to F127-(DFO-Ga)2/ERY; assay type: cell-based, Pseudomonas aeruginosa; conditions: 50 μg/mL ERY alone
[4] = system: MDR strains (2638, 3072, and 24530) of P. aeruginosa; test: Growth inhibition by F127-(DFO-Ga)2/ERY, MDR strains; assay type: cell-based, Pseudomonas aeruginosa; conditions: 244 μM F127-(DFO-Ga)2 and/or 50 μg/mL ERY
Method: At time points of 0, 1, 2, and 4 hours, a small aliquot was removed from the broth culture, logarithmically diluted in M9 salts, and then spread onto cation-adjusted Mueller-Hinton agar plates. After overnight incubation at 37° C., colonies were counted and the number of CFU/mL was calculated.

P. aeruginosa ATCC 27853 [5] = test: Disk diffusion, zones of inhibition; assay type: cell-based, Pseudomonas aeruginosa; conditions: for zone of inhibition, A: same disks and plates
Method: (§2) Single colonies were grown in MHB to match a 0.5 McFarland standard. A sterile cotton swab was dipped into the various MDR strain inoculums and spread evenly over the surface of the agar plates. Purchased antibiotic-containing disks at fixed concentrations (Table 4) were placed on the surface of each plate and incubated overnight at 37° C. Zones of inhibition were measured the following morning. Measurements included the diameter (d) of the antibiotic disk (6 mm) and are reported in terms of diameters and areas. […] Typically for diameters, R<10, I 11-15, and S>15 where R=resistance, I=intermediate resistance, and S=susceptible.

[6] = system: P. aeruginosa MDR strain 24530; test: Disk diffusion, zones of inhibition; assay type: cell-based, Pseudomonas aeruginosa
Method: as §2

[7] = system: P. aeruginosa MDR strain 3072; test: Disk diffusion, zones of inhibition; assay type: cell-based, Pseudomonas aeruginosa
Method: as §2

P. aeruginosa PAO1 [8] = test: Disk diffusion, zones of inhibition; assay type: cell-based, Pseudomonas aeruginosa
Method: as §2

[9] = Pseudomonas aeruginosa, read-out: zone of inhibition, d

CC[C@H]1OC(=O)[C@H](C)[C@@H](O[C@H]2C[C@@](C)(OC)[C@@H](O)[C@H](C)O2)[C@H](C)[C@@H](O[C@@H]2O[C@H](C)C[C@H](N(C)C)[C@H]2O)[C@](C)(O)C[C@@H](C)C(=O)[C@H](C)[C@@H](O)[C@]1(C)O [ERY, erythromycin]
MIC (E. coli ATCC 25922; E. coli ATCC 25922, Example 9, read-out: MIC (Table 7, agent alone)): 32 mg/L | MIC (E. coli ATCC 25922; E. coli ATCC 25922, antibiotic alone, Table 3, read-out: MIC): 32 mg/L | MIC (P. aeruginosa ATCC 27853 [1]): 256 mg/L | MIC (P. aeruginosa ATCC 27853 [1]; P. aeruginosa ATCC 27853, Example 9, read-out: MIC (Table 7, agent alone)): > 128 mg/L | MIC (P. aeruginosa PAO1 [2]; PAO1): 256 mg/L | MIC (P. aeruginosa PAO1 [2]; P. aeruginosa PAO1, Example 9, read-out: MIC (Table 7, agent alone)): > 128 mg/L | MIC (P. aeruginosa MDR 24530): 512 mg/L | MIC (P. aeruginosa MDR 2638): 512 mg/L | MIC (P. aeruginosa MDR 3072): 512 mg/L | reduction in the OD600 compared to the positive control [3]: approximately 40% | bacterial growth [4]: similarly ineffective | zone of inhibition, A (P. aeruginosa ATCC 27853 [5]; 27853): 95 mm^2 | zone of inhibition at 15 µg/disc (P. aeruginosa ATCC 27853 [5]; Pseudomonas aeruginosa, ATCC27853, 27853, disks NVB 30 μg, ERY 15 μg, RIF 5 μg, VAN 30 μg, MHA with or without 256 μM DG-F125, includes 6 mm disk, read-out: zone of inhibition, d): 11 mm | A of region where some growth is still visible (in parentheses) ([6]; 24530, same disks and plates): (133) mm^2 | d of region where some growth is still visible (in parentheses) ([6]; 24530, same disks and plates): (13) mm | zone of inhibition, A ([6]; 24530, same disks and plates): 0 mm^2 | zone of inhibition at 15 µg/disc ([6]; Pseudomonas aeruginosa, 24530, disks NVB 30 μg, ERY 15 μg, RIF 5 μg, VAN 30 μg, MHA with or without 256 μM DG-F125, includes 6 mm disk, read-out: zone of inhibition, d): 0 mm | A of region where some growth is still visible (in parentheses) ([7]; 3072, same disks and plates): (283) mm^2 | d of region where some growth is still visible (in parentheses) ([7]; 3072, same disks and plates): (19) mm | zone of inhibition, A ([7]; 3072, same disks and plates): 0 mm^2 | zone of inhibition at 15 µg/disc ([7]; Pseudomonas aeruginosa, 3072, disks NVB 30 μg, ERY 15 μg, RIF 5 μg, VAN 30 μg, MHA with or without 256 μM DG-F125, includes 6 mm disk, read-out: zone of inhibition, d): 0 mm | zone of inhibition, A (P. aeruginosa PAO1 [8]; PAO1, same disks and plates): 64 mm^2 | zone of inhibition at 15 µg/disc (P. aeruginosa PAO1 [8]; Pseudomonas aeruginosa, PAO1, disks NVB 30 μg, ERY 15 μg, RIF 5 μg, VAN 30 μg, MHA with or without 256 μM DG-F125, includes 6 mm disk, read-out: zone of inhibition, d): 9 mm

CN[C@H](CC(C)C)C(=O)N[C@H]1C(=O)N[C@@H](CC(N)=O)C(=O)N[C@H]2C(=O)N[C@H]3C(=O)N[C@H](C(=O)N[C@H](C(=O)O)c4cc(O)cc(O)c4-c4cc3ccc4O)[C@H](O)c3ccc(c(Cl)c3)Oc3cc2cc(c3O[C@@H]2O[C@H](CO)[C@@H](O)[C@H](O)[C@H]2O[C@H]2C[C@](C)(N)[C@H](O)[C@H](C)O2)Oc2ccc(cc2Cl)[C@H]1O [VAN, vancomycin]
MIC (E. coli ATCC 25922): 128 mg/L | MIC (P. aeruginosa ATCC 27853 [1]): > 1020 mg/L | MIC (P. aeruginosa PAO1 [2]; PAO1): > 1020 mg/L | MIC (P. aeruginosa MDR 24530): 1020 mg/L | MIC (P. aeruginosa MDR 2638): 512 mg/L | MIC (P. aeruginosa MDR 3072): > 1020 mg/L | zone of inhibition, A (P. aeruginosa ATCC 27853 [5]; 27853): 0 mm^2 | zone of inhibition at 30 µg/disc (P. aeruginosa ATCC 27853 [5]; Pseudomonas aeruginosa, ATCC27853, read-out: zone of inhibition, d): 0 mm | zone of inhibition, A ([6]; 24530, same disks and plates): 0 mm^2 | zone of inhibition at 30 µg/disc [6, 9]: 0 mm | zone of inhibition, A ([7]; 3072, same disks and plates): 0 mm^2 | zone of inhibition at 30 µg/disc [7, 9]: 0 mm | A of region where some growth is still visible (in parentheses) (P. aeruginosa PAO1 [8]; PAO1, same disks and plates): 64 mm^2 | d of region where some growth is still visible (in parentheses) (P. aeruginosa PAO1 [8]; PAO1, same disks and plates): 9 mm | zone of inhibition, A (P. aeruginosa PAO1 [8]; PAO1, same disks and plates): 0 mm^2 | zone of inhibition at 30 µg/disc (P. aeruginosa PAO1 [8]; Pseudomonas aeruginosa, PAO1, read-out: zone of inhibition, d): 0 mm
